Experimental data: patent EP4775580A1, “COMPOUND, PHARMACEUTICAL COMPOSITION COMPRISING SAME, AND USE THEREOF” (Euregen Biopharma Co., Ltd., priority 2023, dated 2025)
Read-outs that look alike come from different tables or passages of the source.

How the values were obtained:
[1] = Pharmacokinetics in rats after single IV and PO administration (LC-MS/MS); assay type: in vivo, male SD rats; conditions: SD rats
Description: • 1. Objective: This study aimed to characterize the pharmacokinetic properties of selected compounds from the examples of the present invention in SD rats following single intravenous (IV) injection and oral (PO) administration using LC-MS/MS methodology. • 2. Experimental Materials: Test compounds were prepared according to the examples of the present invention; male SD rats were obtained from the Laboratory Animal Department of Shanghai Institute of Planned Parenthood Research (License No. SCXK(Shanghai)2018-0006) or Shanghai Jihui Laboratory Animal Breeding Co., Ltd. (License No. SCXK(Shanghai)2022-0009). • 3. Experimental Methods: Preparation of 0.5% methylcellulose: 5 g of methylcellulose was weighed and dissolved in 1000 mL of purified water. Preparation of 0.5% methylcellulose (pH = 5.03): 5 g of methylcellulose was weighed and dissolved in 1000 mL of purified water, and the pH was adjusted to 5.03 with 100 mM citric acid.
Preparation of oral formulations: The required amount of test compound was weighed and dissolved in 0.5% methylcellulose solution or 0.5% methylcellulose (pH = 5.03) to obtain a suspension or solution at 1 or 3 mg/mL.
Preparation of intravenous injection formulations: The required amount of test compound (EB229, EB300, EB341, EB342) was weighed and dissolved in 0.5 mL dimethyl sulfoxide to prepare a 4 mg/mL solution. To 0.25 mL of this solution, 0.5 mL of polyethylene glycol 15-hydroxystearate (Solutol) and 4.25 mL of normal saline were added to obtain a 0.2 mg/mL solution. For EB834, 6 mg was weighed and dissolved in 0.1 mL dimethyl sulfoxide, followed by addition of 0.2 mL polyethylene glycol 15-hydroxystearate (Solutol) and 1.7 mL normal saline to obtain a 3 mg/mL solution.
Dosing: Male SD rats were fasted overnight prior to oral (PO) administration; fasting was not required for the single intravenous (IV) injection group. Food was provided 4 hours post-dosing.
Sample Collection: Blood was collected from the jugular vein or other suitable veins, with 0.2 mL collected at each time point. Samples were placed in tubes containing dipotassium ethylenediaminetetraacetate and kept on ice prior to centrifugation. Within 1 hour of blood collection, samples were centrifuged at 6800 × g for 6 minutes at 2-8°C and stored at -80°C.

Molm-13 cells = test: Antiproliferative activity, CellTiter-Glo, 7 days (Test Example 2), Molm-13; assay type: cell-based; conditions: Homo sapiens, 168 h, 7 days incubation, read-out: MOLM13 IC50
Text: [0134] 1. Experimental Principle: MV-4-11, Molm-13, and OCI-AML-3 cells are human hematologic tumor cell lines harboring the Menin-MLL fusion. HL-60 is a wild-type human hematologic tumor cell line without Menin-MLL fusion. […] 2. Experimental Materials: MV-4-11, Molm-13, OCI-AML-3, and HL-60 cells were all purchased from Cobioer; CellTiter-Glo® was purchased from Promega (Cat. #G7571); RPMI-1640 was purchased from Viva Cell (Cat. #C3010-0500); IMDM was purchased from Viva Cell (Cat. #C3040-0500); fetal bovine serum (FBS) was purchased from Biosera (Cat. #FB-1058/500); penicillin-streptomycin was purchased from BasalMedia (Cat. #S110JV); 0.25% Trypsin-EDTA was purchased from BasalMedia (Cat. #S310KJ); dimethyl sulfoxide (DMSO) was purchased from Sinopharm (Cat. #30072418); 96-well plates were purchased from Corning (Cat. #3610); incubator was obtained from PHCbi (Model: MCO-18AC); inverted microscope was obtained from Mingmei (Cat. #MI52-0); automated cell counter was obtained from BodBoge (Model: JSY-SC-031N); microplate reader was obtained from PerkinElmer (Model: Envision); data processing software: GraphPad Prism 8.0. 3. […] After incubation at room temperature for 10 minutes, luminescence values were read using the EnVision microplate reader, and IC50 values were calculated using GraphPad Prism 8.0 software. […]

[2] = test system: MV-4-11 subcutaneous tumor xenograft; test: In vivo efficacy in subcutaneous MV-4-11 tumor xenograft model; set-up: species or system female NOD/SCID mice; conditions: oral gavage once daily, tumor volume, Figure 1
Text: • 1. Objective: To evaluate the in vivo efficacy of test compounds in a subcutaneous MV-4-11 tumor xenograft model in female NOD/SCID mice. • 2. Experimental Materials: The test compound was Compound 3 prepared according to the examples of the present invention; the positive control compound SNDX-5613 was purchased from Chengdu Zhihui Zhongxin Biomedical Co., Ltd.; MV-4-11 cells were purchased from Nanjing Cobioer; NOD/SCID mice were purchased from Beijing Vital River Laboratory Animal Technology Co., Ltd. • 3. Experimental Methods: Female NOD/SCID mice, 6-8 weeks of age, weighing 16-22 g, were used. MV-4-11 cells were cultured in IMDM medium supplemented with 20% fetal bovine serum. Cells in exponential growth phase were harvested, resuspended in phosphate-buffered saline, and prepared as a cell suspension at a density of 1 × 10^7 cells/0.1 mL. Cells were subcutaneously inoculated into the right dorsal neck region of each mouse (1 × 10^7 cells/mouse) with 50% Matrigel. When the mean tumor volume reached approximately 50-100 mm^3, mice were randomized and treatment was initiated by oral gavage administration once daily. Tumor diameters were measured twice weekly using digital calipers. Tumor volume was calculated using the formula: V = 0.5 × a × b^2, where a and b represent the longest and shortest tumor diameters, respectively.

CCN(C(=O)c1cc(F)ccc1N1CCN([C@@H]2CCN([C@H](CCCN(C)CCOC)C(C)C)C2)c2ncncc21)C(C)C [Example 3]
PO F ([1]; PO 30 mg/kg vs IV 3 mg/kg): 172%
AUC(0-t) ([1]; rat, in vivo, IV 3 mg/kg, read-out: IV AUC(0-t)): 494 ng·h/mL
clearance ([1]; rat, in vivo, IV 3 mg/kg, read-out: IV CL): 59.2 mL/min/kg
Cmax ([1]; rat, in vivo, IV 3 mg/kg, read-out: IV Cmax): 193 ng/mL
Vd ([1]; rat, in vivo, IV 3 mg/kg, read-out: IV Vss): 203 L/kg
half-life ([1]; rat, in vivo, IV 3 mg/kg, read-out: IV t1/2 (converted)): 3170 min
AUC(0-t) ([1]; rat, in vivo, PO 30 mg/kg, 0.5% MC (pH 5.03), read-out: PO AUC(0-t)): 8500 ng·h/mL
Cmax ([1]; rat, in vivo, PO 30 mg/kg, 0.5% MC (pH 5.03), read-out: PO Cmax): 1140 ng/mL
half-life ([1]; rat, in vivo, PO 30 mg/kg, 0.5% MC (pH 5.03), read-out: PO t1/2 (converted)): 1280 min
IC50 (Molm-13 cells): 26.7 nM
efficacy in MV-4-11 subcutaneous tumor xenograft model [2]: superior efficacy compared to the positive control SNDX-5613
